Values quoted from earlier work in publication PMC12150326 (The Journal of Organic Chemistry, 2025).
Values joined by “and” are separate entries in the source; they are usually repeats but may differ in a detail not shown here. Equal entries are not always repeated. Where two headings read alike, the source gives them in different places.

Columns and labels:
Parameters in all cases: method as in NCI-60 database
SF-539 = SF-539 ref NCI-60 database, cited from earlier work
IGROV1 = IGROV1 ref NCI-60 database, cited from earlier work
M14 = M14 ref NCI-60 database, cited from earlier work
SR = SR ref NCI-60 database, cited from earlier work
HCC-2998 = HCC-2998 ref NCI-60 database, cited from earlier work
UACC-257 = UACC-257 ref NCI-60 database; cited from earlier work
NCI/ADR-RES = NCI/ADR-RES ref NCI-60 database; listed as 757/9; cited from earlier work
NCI-H226 = NCI-H226 ref NCI-60 database, cited from earlier work
DMS 114 = DMS 114 ref NCI-60 database, cited from earlier work
DLD-1 = DLD-1 ref NCI-60 database, cited from earlier work
OVCAR-5 = OVCAR-5 ref NCI-60 database, cited from earlier work
OVCAR-4 = OVCAR-4 ref NCI-60 database, cited from earlier work
EKVX = EKVX ref NCI-60 database, cited from earlier work
SK-OV-3 = SK-OV-3 ref NCI-60 database, cited from earlier work
HT29 = HT29 ref NCI-60 database, cited from earlier work
SW-620 = SW-620 ref NCI-60 database, cited from earlier work
MOLT-4 = MOLT-4 ref NCI-60 database, cited from earlier work
UACC-62 = UACC-62 ref NCI-60 database, cited from earlier work
NCI-H23 = NCI-H23 ref NCI-60 database, cited from earlier work

In the case of COc1cc2c(c(OC)c1OC)-c1ccc(OC)c(=O)cc1[C@@H](NC(C)=O)CC2 [Colchicine, (−)-Colchicine], the GI50 (SF-539) is listed as 30 nM, the Log10GI50 (SF-539) is listed as -7.54 Molar and the Log10GI50 (SF-539; listed as 757/1) is listed as -7.48 Molar. The Log10TGI (SF-539; listed as 757/9) was -6.82 Molar, the Log10LC50 (SF-539; listed as 757/21) was > -4.00 Molar and -4.05 Molar and the GI50 (IGROV1) was 52 nM. For the same molecule, the Log10GI50 (IGROV1) was -7.28 Molar, the Log10LC50 (IGROV1) was > -4.00 Molar and the Log10GI50 (IGROV1; listed as 757/9) was < -8.00 Molar. The Log10TGI (IGROV1; listed as 757/9) was -7.80 Molar, the Log10TGI (IGROV1; listed as 757/21) was > -4.00 Molar and the GI50 (M14) was 55 nM. For the same molecule, the Log10GI50 (M14) was -7.26 Molar, the Log10LC50 (M14) was > -4.00 Molar and the Log10GI50 (M14; listed as 757/9) was -7.68 Molar. The Log10TGI (M14; listed as 757/9) was -6.43 Molar, the GI50 (SR) was 30 nM and the Log10GI50 (SR) was -7.49 Molar. The Log10LC50 (SR) was > -4.00 Molar, the Log10GI50 (SR; listed as 757/9) was < -8.00 Molar and the Log10TGI (SR; listed as 757/9) was -7.47 Molar. The Log10TGI (SR; listed as 757/21) was > -4.00 Molar, the GI50 (HCC-2998) was 30 nM and the Log10GI50 (HCC-2998) was -7.51 Molar. The Log10LC50 (HCC-2998) was > -4.00 Molar, the Log10GI50 (HCC-2998; listed as 757/1) was -7.48 Molar and the Log10GI50 (HCC-2998; listed as 757/9) was -7.78 Molar. The Log10TGI (HCC-2998; listed as 757/9) was -7.59 Molar and -7.33 Molar, the GI50 (UACC-257) was > 100000 nM and the Log10GI50 (UACC-257) was > -4 Molar. The Log10LC50 (UACC-257) was > -4.00 Molar, the Log10TGI (UACC-257) was > -4.00 Molar and the Log10GI50 (NCI/ADR-RES) was -6.59 Molar and -6.31 Molar. The GI50 (NCI-H226) was 30 nM, the Log10GI50 (NCI-H226) was -7.56 Molar and the Log10LC50 (NCI-H226) was > -4.00 Molar. For the same molecule, the Log10TGI (NCI-H226; listed as 757/1) was > -4.00 Molar, the Log10GI50 (NCI-H226; listed as 757/9) was -7.18 Molar and the Log10TGI (NCI-H226; listed as 757/9) was -7.35 Molar. The Log10LC50 (DMS 114) was > -4.00 Molar, the Log10GI50 (DMS 114; listed as 757/1) was -4.75 Molar and the Log10GI50 (DMS 114; listed as 757/21) was < -8.00 Molar. The Log10TGI (DMS 114; listed as 757/21) was -7.73 Molar and -7.65 Molar, the Log10LC50 (DLD-1) was > -4.00 Molar and the Log10TGI (DLD-1) was > -4.00 Molar. For the same molecule, the Log10GI50 (DLD-1; listed as 757/1) was -7.35 Molar, the GI50 (OVCAR-5) was 76 nM and the Log10GI50 (OVCAR-5) was -7.12 Molar. The Log10LC50 (OVCAR-5) was > -4.00 Molar, the Log10GI50 (OVCAR-5; listed as 757/1) was -4.48 Molar and the GI50 (OVCAR-4) was 93300 nM. For the same molecule, the Log10GI50 (OVCAR-4) was -4.03 Molar, the Log10LC50 (OVCAR-4) was > -4.00 Molar and the Log10TGI (OVCAR-4) was > -4.00 Molar. The Log10GI50 (OVCAR-4; listed as 757/1) was -4.45 Molar, the GI50 (EKVX) was > 100000 nM and the Log10GI50 (EKVX) was > -4 Molar. For the same molecule, the Log10LC50 (EKVX) was > -4.00 Molar, the Log10TGI (EKVX) was > -4.00 Molar and the Log10GI50 (EKVX; listed as 757/21) was > -4.00 Molar. For the same molecule, the Log10LC50 (SK-OV-3) was > -4.00 Molar, the Log10GI50 (SK-OV-3; listed as 757/1) was -4.43 Molar and the Log10TGI (SK-OV-3; listed as 757/1) was -4.07 Molar and -4.21 Molar. The Log10GI50 (SK-OV-3; listed as 757/9) was -7.55 Molar and -7.81 Molar, the Log10TGI (SK-OV-3; listed as 757/9) was -7.17 Molar and the Log10GI50 (SK-OV-3; listed as 757/21) was -7.71 Molar and -7.65 Molar. The GI50 (HT29) was 30 nM, the Log10GI50 (HT29) was -7.55 Molar and the Log10LC50 (HT29) was > -4.00 Molar. The Log10TGI (HT29; listed as 757/1) was -4.61 Molar, the Log10GI50 (HT29; listed as 757/9) was -7.32 Molar and the Log10TGI (HT29; listed as 757/9) was -6.43 Molar. The GI50 (SW-620) was 20 nM, the Log10GI50 (SW-620) was -7.66 Molar and the Log10LC50 (SW-620) was > -4.00 Molar. The Log10GI50 (SW-620; listed as 757/1) was -7.46 Molar, the GI50 (MOLT-4) was 40 nM and the Log10GI50 (MOLT-4) was -7.45 Molar. For the same molecule, the Log10GI50 (MOLT-4; listed as 757/9) was -7.60 Molar, the Log10LC50 (MOLT-4; listed as 757/9) was -4.90 Molar and the Log10TGI (MOLT-4; listed as 757/9) was < -8.00 Molar. For the same molecule, the Log10LC50 (MOLT-4; listed as 757/21) was > -4.00 Molar, the Log10TGI (MOLT-4; listed as 757/21) was > -4.00 Molar and the GI50 (UACC-62) was 21 nM. The Log10GI50 (UACC-62) was -7.67 Molar, the Log10GI50 (UACC-62; listed as 757/1) was -7.19 Molar and the Log10GI50 (UACC-62; listed as 757/9) was -6.40 Molar. For the same molecule, the Log10LC50 (UACC-62; listed as 757/9) was -6.18 Molar, the Log10TGI (UACC-62; listed as 757/9) was -7.72 Molar and the Log10LC50 (UACC-62; listed as 757/21) was > -4.00 Molar and -4.22 Molar. For the same molecule, the GI50 (NCI-H23) was 30 nM, the Log10GI50 (NCI-H23) was -7.54 Molar and the Log10LC50 (NCI-H23; listed as 757/9) was -7.14 Molar. For the same molecule, the Log10LC50 (NCI-H23; listed as 757/21) was > -4.00 Molar and the Log10TGI (NCI-H23; listed as 757/21) was > -4.00 Molar.
